Source: PMC4917448 (Journal of biomolecular screening, 2016)

Key:
[1] = CellTiter-Glo cell viability assay in hNSC; type: cell-based, human; conditions: human, human neural stem cells (hNSC)
human neural stem cells = experiment: CellTiter-Glo cell viability assay in hNSC; type: cell-based; conditions: for IC50: Homo sapiens, Neural stem cell, 1 h, read-out: Viability: IC50, hNSC
HDAC I/II [2] = experiment: HDAC-Glo I/II assay in HCT116 cells; type: cell-based, human; conditions: for HDAC-Glo: Efficacy, HCT116 / Efficacy, HDAC-Glo I/II HCT116 assay: maximal response
[3] = CellTiter-Glo cell viability assay in HCT116; type: cell-based, human; conditions: human, HCT116 cells
HCT116 cells = experiment: CellTiter-Glo cell viability assay in HCT116; type: cell-based, human; conditions: for Viability: IC50, HCT116: cherry-pick confirmation, 1 hour
HDAC I/II [4] = experiment: HDAC-Glo I/II assay in human neural stem cells; type: cell-based; conditions: for HDAC-Glo: Efficacy, hNSC: maximal response
HDAC9 = HDAC9 (Homo sapiens, UniProt Q9UKV0); experiment: Fluorogenic isoform-specific HDAC assay, HDAC9; type: biochemical
HDAC9, sequence (Q9UKV0 whole entry, canonical isoform): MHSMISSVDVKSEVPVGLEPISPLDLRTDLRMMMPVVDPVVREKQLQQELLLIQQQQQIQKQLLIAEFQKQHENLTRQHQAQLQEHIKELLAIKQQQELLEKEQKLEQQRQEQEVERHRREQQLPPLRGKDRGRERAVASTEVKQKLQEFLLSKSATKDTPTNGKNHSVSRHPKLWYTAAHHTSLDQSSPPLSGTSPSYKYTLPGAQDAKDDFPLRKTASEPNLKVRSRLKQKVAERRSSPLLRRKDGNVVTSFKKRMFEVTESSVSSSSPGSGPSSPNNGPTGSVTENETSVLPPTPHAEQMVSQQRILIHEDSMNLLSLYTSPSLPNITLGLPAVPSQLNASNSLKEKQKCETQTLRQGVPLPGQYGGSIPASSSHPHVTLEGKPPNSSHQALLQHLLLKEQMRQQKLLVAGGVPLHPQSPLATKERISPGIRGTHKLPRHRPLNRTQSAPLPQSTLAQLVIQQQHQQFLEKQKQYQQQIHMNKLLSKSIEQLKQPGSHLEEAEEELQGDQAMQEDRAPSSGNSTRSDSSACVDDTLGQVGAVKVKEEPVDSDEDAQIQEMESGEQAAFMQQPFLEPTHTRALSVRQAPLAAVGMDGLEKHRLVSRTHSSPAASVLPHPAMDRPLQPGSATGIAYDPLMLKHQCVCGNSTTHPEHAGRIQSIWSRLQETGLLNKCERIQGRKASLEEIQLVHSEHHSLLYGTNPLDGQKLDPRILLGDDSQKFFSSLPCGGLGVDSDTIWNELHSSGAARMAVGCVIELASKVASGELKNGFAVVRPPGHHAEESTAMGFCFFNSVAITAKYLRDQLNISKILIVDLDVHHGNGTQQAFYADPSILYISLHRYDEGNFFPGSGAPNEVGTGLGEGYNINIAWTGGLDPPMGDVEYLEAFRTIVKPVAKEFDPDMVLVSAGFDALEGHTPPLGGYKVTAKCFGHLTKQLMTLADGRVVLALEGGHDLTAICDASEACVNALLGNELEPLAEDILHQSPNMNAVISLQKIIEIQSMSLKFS

HDAC6 = target: T1, HDAC6 (Homo sapiens, UniProt Q9UBN7); experiment: Fluorogenic isoform-specific HDAC assay, HDAC6; type: biochemical
T1 sequence (Q9UBN7 1-1215): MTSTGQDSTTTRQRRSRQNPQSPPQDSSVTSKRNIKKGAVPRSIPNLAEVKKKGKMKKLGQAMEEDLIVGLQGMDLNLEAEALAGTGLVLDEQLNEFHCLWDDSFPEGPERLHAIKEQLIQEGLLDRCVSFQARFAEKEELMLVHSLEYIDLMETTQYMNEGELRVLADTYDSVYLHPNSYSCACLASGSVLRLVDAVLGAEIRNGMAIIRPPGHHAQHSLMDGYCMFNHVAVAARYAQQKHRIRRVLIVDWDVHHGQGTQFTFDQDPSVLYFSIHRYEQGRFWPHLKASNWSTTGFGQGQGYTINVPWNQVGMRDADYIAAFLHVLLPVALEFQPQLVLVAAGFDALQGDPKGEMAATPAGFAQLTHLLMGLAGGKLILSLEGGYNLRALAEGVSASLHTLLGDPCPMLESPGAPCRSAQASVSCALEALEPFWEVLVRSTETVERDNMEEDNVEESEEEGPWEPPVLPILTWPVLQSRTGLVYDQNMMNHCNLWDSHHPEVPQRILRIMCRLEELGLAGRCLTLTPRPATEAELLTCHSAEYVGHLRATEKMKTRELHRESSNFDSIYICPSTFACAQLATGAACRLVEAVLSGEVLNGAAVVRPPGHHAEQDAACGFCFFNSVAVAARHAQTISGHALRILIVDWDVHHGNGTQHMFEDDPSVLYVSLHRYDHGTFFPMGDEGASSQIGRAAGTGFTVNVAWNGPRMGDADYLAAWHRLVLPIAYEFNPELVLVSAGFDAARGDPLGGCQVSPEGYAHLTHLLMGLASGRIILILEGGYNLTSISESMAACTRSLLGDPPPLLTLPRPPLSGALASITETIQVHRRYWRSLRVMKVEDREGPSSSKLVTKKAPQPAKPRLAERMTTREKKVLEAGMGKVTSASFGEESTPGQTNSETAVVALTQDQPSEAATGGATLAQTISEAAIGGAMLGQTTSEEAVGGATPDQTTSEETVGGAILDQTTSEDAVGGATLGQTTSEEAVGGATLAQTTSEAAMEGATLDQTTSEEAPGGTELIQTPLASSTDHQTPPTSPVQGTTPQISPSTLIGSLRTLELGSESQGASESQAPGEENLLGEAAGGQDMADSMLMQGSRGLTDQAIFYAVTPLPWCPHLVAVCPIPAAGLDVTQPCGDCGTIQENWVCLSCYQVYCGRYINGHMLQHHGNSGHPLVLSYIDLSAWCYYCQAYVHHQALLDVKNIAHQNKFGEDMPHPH

HDAC2 = HDAC2 (Homo sapiens, UniProt Q92769); experiment: Fluorogenic isoform-specific HDAC assay, HDAC2; type: biochemical
HDAC2, sequence (Q92769 whole entry, canonical isoform): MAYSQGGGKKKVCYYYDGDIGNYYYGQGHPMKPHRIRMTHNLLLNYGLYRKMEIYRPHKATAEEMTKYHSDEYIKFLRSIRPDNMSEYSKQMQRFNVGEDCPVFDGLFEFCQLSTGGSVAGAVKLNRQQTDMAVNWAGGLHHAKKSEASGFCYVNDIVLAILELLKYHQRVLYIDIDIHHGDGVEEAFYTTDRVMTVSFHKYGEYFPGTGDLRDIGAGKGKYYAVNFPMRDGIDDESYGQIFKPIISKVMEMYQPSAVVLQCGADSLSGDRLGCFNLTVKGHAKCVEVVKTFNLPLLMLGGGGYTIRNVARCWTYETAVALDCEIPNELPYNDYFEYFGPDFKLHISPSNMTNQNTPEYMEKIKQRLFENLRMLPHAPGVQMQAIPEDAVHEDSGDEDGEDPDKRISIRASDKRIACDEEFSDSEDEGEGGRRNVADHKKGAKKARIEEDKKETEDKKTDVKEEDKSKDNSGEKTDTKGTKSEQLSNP

HDAC3 = HDAC3 (Homo sapiens, UniProt O15379); experiment: Fluorogenic isoform-specific HDAC assay, HDAC3; type: biochemical
HDAC3, sequence (O15379 whole entry, canonical isoform): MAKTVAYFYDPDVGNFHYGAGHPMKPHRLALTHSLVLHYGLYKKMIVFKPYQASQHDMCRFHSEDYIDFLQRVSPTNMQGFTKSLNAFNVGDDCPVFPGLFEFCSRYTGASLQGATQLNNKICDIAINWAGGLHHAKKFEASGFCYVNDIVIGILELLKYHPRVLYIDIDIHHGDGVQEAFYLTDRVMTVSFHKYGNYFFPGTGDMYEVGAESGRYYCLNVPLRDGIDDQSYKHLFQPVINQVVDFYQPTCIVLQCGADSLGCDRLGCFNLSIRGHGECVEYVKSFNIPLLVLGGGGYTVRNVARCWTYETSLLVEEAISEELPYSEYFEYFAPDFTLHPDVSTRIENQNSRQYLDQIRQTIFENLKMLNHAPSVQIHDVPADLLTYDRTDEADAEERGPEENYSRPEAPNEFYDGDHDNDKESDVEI
HDAC3, sequence (Q9Y618 395-489 partner limits assumed): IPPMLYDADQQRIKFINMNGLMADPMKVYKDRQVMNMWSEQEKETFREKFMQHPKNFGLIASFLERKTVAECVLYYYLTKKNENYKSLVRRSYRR

HDAC1 = HDAC1 (Homo sapiens, UniProt Q13547); experiment: Fluorogenic isoform-specific HDAC assay, HDAC1; type: biochemical; conditions: Figure 4C, Suppl. Table S4
HDAC1, sequence (Q13547 whole entry, canonical isoform): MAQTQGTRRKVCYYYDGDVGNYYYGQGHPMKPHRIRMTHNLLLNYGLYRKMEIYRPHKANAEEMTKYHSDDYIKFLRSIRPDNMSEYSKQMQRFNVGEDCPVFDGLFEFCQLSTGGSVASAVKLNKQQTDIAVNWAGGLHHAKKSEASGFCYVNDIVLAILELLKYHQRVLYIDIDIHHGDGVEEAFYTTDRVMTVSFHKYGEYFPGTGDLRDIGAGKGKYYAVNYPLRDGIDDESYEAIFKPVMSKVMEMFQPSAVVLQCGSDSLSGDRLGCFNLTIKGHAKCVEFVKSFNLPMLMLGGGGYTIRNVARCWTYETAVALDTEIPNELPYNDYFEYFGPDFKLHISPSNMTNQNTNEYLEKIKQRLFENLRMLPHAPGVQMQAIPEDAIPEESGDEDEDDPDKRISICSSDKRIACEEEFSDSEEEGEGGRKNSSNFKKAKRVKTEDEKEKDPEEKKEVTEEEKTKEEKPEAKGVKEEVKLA

HDAC8 = target: T2, HDAC8 (Homo sapiens, UniProt Q9BY41); experiment: Fluorogenic isoform-specific HDAC assay, HDAC8; type: biochemical
T2 sequence (Q9BY41 1-377): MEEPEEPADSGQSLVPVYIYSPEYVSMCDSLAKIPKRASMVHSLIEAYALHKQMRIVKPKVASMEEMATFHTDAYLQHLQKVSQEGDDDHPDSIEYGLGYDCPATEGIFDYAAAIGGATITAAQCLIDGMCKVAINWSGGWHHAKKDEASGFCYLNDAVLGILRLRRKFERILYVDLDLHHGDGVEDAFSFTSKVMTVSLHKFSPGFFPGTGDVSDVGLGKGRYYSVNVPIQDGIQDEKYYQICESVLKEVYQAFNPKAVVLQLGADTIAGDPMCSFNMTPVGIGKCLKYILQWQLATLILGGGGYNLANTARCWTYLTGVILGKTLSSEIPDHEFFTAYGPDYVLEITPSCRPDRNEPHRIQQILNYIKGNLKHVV

HDAC7 = target: T3, HDAC7 (Homo sapiens, UniProt Q8WUI4); experiment: Fluorogenic isoform-specific HDAC assay, HDAC7; type: biochemical; conditions: Figure 4D, Suppl. Table S4
T3 sequence (Q8WUI4 1-952): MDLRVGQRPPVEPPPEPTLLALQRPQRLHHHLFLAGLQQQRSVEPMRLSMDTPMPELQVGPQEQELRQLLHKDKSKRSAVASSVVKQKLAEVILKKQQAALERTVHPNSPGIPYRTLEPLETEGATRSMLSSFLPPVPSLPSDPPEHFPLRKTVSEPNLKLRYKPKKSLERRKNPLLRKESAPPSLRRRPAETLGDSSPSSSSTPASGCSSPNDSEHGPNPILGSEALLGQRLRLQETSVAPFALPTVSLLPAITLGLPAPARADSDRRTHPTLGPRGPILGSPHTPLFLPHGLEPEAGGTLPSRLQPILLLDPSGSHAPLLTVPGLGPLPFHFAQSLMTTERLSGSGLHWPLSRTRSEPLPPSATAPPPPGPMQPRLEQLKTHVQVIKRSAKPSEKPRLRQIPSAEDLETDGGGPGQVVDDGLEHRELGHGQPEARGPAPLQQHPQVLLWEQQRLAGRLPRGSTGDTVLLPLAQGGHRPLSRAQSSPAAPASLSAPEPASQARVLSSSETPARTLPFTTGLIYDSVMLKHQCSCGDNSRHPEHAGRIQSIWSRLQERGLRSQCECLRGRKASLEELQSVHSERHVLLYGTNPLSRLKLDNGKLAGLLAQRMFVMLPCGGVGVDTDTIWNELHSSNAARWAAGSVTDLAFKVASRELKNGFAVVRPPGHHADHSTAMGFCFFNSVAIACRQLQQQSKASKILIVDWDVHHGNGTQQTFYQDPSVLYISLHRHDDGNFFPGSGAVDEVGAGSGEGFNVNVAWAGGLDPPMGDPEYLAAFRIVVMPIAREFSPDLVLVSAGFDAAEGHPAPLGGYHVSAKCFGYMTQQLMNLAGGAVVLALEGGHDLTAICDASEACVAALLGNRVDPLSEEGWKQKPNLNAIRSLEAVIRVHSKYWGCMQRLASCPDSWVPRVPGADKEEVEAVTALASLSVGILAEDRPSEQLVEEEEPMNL

HDAC5 = HDAC5 (Homo sapiens, UniProt Q9UQL6); experiment: Fluorogenic isoform-specific HDAC assay, HDAC5; type: biochemical
HDAC5, sequence (Q9UQL6 whole entry, canonical isoform): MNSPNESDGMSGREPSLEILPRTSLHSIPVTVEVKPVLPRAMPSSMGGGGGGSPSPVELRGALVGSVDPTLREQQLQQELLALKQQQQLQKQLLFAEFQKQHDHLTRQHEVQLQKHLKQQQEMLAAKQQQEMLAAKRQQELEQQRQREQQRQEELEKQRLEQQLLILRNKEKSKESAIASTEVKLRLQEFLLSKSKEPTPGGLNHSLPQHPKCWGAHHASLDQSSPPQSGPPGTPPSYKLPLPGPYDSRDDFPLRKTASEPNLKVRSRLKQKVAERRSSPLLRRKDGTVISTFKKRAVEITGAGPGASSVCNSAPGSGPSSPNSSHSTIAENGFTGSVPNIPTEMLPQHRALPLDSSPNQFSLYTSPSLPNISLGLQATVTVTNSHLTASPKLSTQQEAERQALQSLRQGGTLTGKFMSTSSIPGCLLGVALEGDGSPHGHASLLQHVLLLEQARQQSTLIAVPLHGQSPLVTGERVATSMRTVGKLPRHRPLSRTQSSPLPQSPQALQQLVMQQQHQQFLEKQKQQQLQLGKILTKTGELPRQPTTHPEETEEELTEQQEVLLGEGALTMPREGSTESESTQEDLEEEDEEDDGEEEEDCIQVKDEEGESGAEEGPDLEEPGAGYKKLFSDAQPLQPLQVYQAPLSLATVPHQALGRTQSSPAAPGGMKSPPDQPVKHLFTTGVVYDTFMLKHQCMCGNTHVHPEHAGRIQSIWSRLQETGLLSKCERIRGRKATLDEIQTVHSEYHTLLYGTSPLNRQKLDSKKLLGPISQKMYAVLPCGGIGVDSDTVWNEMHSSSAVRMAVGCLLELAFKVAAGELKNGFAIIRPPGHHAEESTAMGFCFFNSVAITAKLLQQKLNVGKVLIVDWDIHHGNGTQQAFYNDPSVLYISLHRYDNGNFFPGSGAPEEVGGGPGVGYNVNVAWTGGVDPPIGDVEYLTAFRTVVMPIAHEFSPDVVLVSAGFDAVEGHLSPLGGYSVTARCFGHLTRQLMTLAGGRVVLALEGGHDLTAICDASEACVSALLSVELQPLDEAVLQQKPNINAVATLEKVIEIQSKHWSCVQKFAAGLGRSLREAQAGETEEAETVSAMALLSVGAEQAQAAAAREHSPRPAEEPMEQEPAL

HDAC I/II [5] = experiment: HDAC-Glo I/II assay in HepG2 cells; type: cell-based, human; conditions: read-out: average IC50, HDAC-Glo I/II activity; HepG2, assay optimization, Figure 1A
[6] = test system: class I and II HDAC enzymes; experiment: Panel of fluorogenic assays against ten class I and II HDAC isoforms; type: biochemical, human; conditions: 20 μM
HDAC I/II [7] = experiment: HDAC-Glo I/II assay in HEK293 cells; type: cell-based, human; conditions: read-out: average IC50, HDAC-Glo I/II activity; HEK293, assay optimization, Figure 1A
HDAC I/II [8] = experiment: HDAC-Glo I/II assay in SU-DHL-6 cells; type: cell-based, human; conditions: read-out: average IC50, HDAC-Glo I/II activity; SU-DHL-6, assay optimization, Figure 1A
[9] = read-out: HDAC-Glo: IC50, HCT116, cherry-pick confirmation, 11 concentrations, 1 hour
[10] = read-out: IC50, HDAC-Glo I/II HCT116 assay, powder confirmation
[11] = read-out: HDAC-Glo: IC50, hNSC, cherry-pick confirmation, 11 concentrations, 1 hour

SMILES: CC(=O)Oc1ccccc1C(=O)Nc1ncc([N+](=O)[O-])s1 [Nitazoxanide]
- viability at 1 h [1]: 40%
- IC50 (human neural stem cells): 12.4 ± 4.65 µM
- HDAC-Glo: Efficacy, HCT116 (HDAC I/II [2]; cherry-pick confirmation): 116 ± 1%
- Efficacy, HDAC-Glo I/II HCT116 assay (HDAC I/II [2]; powder confirmation): 99 ± 0%
- IC50 (HDAC I/II [2]; [9]): 1.6 ± 0.1 µM
- IC50 (HDAC I/II [2]; [10]): 1.35 ± 0.14 µM
- viability at 1 h [3]: 62%
- IC50 (HCT116 cells; Homo sapiens, HCT-116, 1 h, read-out: Viability: IC50, HCT116): 23.6 ± 12 µM
- HDAC-Glo: Efficacy, hNSC (HDAC I/II [4]; cherry-pick confirmation): 104 ± 1%
- IC50 (HDAC I/II [4]; [11]): 1.05 ± 0.12 µM

SMILES: Oc1cc(O)cc(/C=C/c2ccc(O)c(O)c2)c1 [Piceatannol]
- IC50 (HDAC9): 9.95 µM
- inhibition of HDAC activity, HDAC9 (HDAC9; Figure 4D, Suppl. Table S4): over 30%
- viability at 1 h [1]: 25%
- IC50 (human neural stem cells): 19.5 ± 2.49 µM
- HDAC-Glo: Efficacy, HCT116 (HDAC I/II [2]; cherry-pick confirmation): 105 ± 7%
- Efficacy, HDAC-Glo I/II HCT116 assay (HDAC I/II [2]; powder confirmation): 60 ± 4%
- IC50 (HDAC I/II [2]; [9]): 5.9 µM
- IC50 (HDAC I/II [2]; [10]): 10.3 ± 1.06 µM
- IC50 (HDAC6): 8.22 µM
- IC50 (HDAC2): 5.04 µM
- Viability: IC50, HCT116 (HCT116 cells): Inactive
- HDAC-Glo: Efficacy, hNSC (HDAC I/II [4]; cherry-pick confirmation): 108 ± 4%
- inhibition of HDAC-Glo I/II luminescence signals (HDAC I/II [4]; hNSCs, cherry-pick confirmation, Figure 2): completely inhibited
- IC50 (HDAC I/II [4]; [11]): 4.18 µM
- IC50 (HDAC3): 23.3 µM
- inhibition of HDAC activity, HDAC1 (HDAC1): over 30%
- IC50 (HDAC8): 3.42 µM
- inhibition of HDAC activity, HDAC7 (HDAC7): over 30%
- IC50 (HDAC5): 0.89 µM
- inhibition of HDAC activity, HDAC5 (HDAC5; Figure 4D, Suppl. Table S4): over 30%

SMILES: CC(/C=C/C(=O)NO)=C\[C@@H](C)C(=O)c1ccc(N(C)C)cc1 [Trichostatin A]
- Viability: IC50, hNSC (human neural stem cells; cherry-pick confirmation, 1 hour): Inactive
- HDAC I/II inhibitory activity (in words) (HDAC I/II [2]; HCT116 and HEK293 cells, validation with epigenetics libraries): greatly inhibited HDAC-Glo I/II activity
- HDAC-Glo: Efficacy, HCT116 (HDAC I/II [2]; cherry-pick confirmation): 119 ± 5%
- Efficacy, HDAC-Glo I/II HCT116 assay (HDAC I/II [2]; powder confirmation): 99 ± 0%
- IC50 (HDAC I/II [2]; [9]): 0.07 ± 0.01 µM
- IC50 (HDAC I/II [2]; [10]): 0.11 ± 0.01 µM
- IC50 (HDAC I/II [2]; read-out: IC50, HDAC-Glo I/II, HCT116 cells, time course, one hour treatment): 0.05 ± 0.03 µM
- IC50 (HDAC I/II [2]; read-out: average IC50, HDAC-Glo I/II activity, HCT116, assay optimization, Figure 1A): 0.25 µM
- Viability: IC50, HCT116 (HCT116 cells): Inactive
- HDAC-Glo: Efficacy, hNSC (HDAC I/II [4]; cherry-pick confirmation): 114 ± 6%
- IC50 (HDAC I/II [4]; [11]): 0.1 ± 0.02 µM
- IC50 (HDAC I/II [4]; read-out: average IC50, HDAC-Glo I/II activity, hNSC, assay optimization, Figure 1A): 0.44 µM
- IC50 (HDAC I/II [5]): 0.05 µM
- inhibition against all class I and II HDAC enzymes [6]: over 80%
- inhibition of HDAC isoforms (in words) ([6]; Figure 3): inhibited activities of all isoforms
- IC50 (HDAC I/II [7]): 0.09 µM
- IC50 (HDAC I/II [8]): 0.1 µM
